Data as given in patent US20130005568A1, “SAFENED HERBICIDAL MIXTURES” (E.I. DU PONT DE NEMOURS AND COMPANY, priority 2011, published 2013).

Experiments:
Henbit = experiment: Test G: turf grass and weed postemergence plant response rating; type: in vivo, Lamium amplexicaule L.; settings: Henbit, postemergence, greenhouse, three weeks, 0-100 scale
Text: (§1) For all of the following biological tests, plant response ratings were based on a 0-100 scale where zero is growth equivalent to that of untreated plants (no plant response) and 100 represents no additional growth occurring after herbicide treatment.
(§2) Plants of the turf grass species: zoysia (Zoysia japonica Steud.), bermudagrass (Cynodon dactylon (L.) Pers.), tall fescue (Festuca arundinacea Shreib.), creeping bentgrass (Agrostis stoonoifera L.), perennial ryegrass (Lolium perenne L.) and hard fescue (Festuca species) were grown under greenhouse conditions for four months. Plants were clipped as needed to plant heights of 5-10 cm. Weeds typically found in turf: annual bluegrass (Poa annua L.), common chickweed (Stellaria media (L.) Vill.), large crabgrass (Digitaria sanguinales (L.) Scop.), dandelion (Taraxacum officinale Weber in Wiggers), goosegrass (Eleusine indica (L.) Gaertn.), henbit (Lamium amplexicaule L.), venice mallow (Hibiscus trionium L.) and purple nutsedge (Cyperus rotundus L.) were also grown under greenhouse conditions so that plants were 5-20 cm tall when they were treated. Herbicide mixtures were formulated, dissolved/dispersed in water containing 0.25% non-ionic surfactant, and sprayed postemergence to these turf grasses and weeds. Treated plants were grown under greenhouse conditions for three weeks before visual evaluations of plant responses were recorded.

Bermudagrass = experiment: as above; type: in vivo, Cynodon dactylon (L.) Pers.; settings: Bermudagrass, postemergence, greenhouse, three weeks, 0-100 scale
Text: as §1
Plants of the turf grass species: zoysia (Zoysia japonica Steud.), bermudagrass (Cynodon dactylon (L.) Pers.), tall fescue (Festuca arundinacea Shreib.), creeping bentgrass (Agrostis stoonoifera L.), perennial ryegrass (Lolium perenne L.) and hard fescue (Festuca species) were grown under greenhouse conditions for four months. Plants were clipped as needed to plant heights of 5-10 cm. […] Herbicide mixtures were formulated, dissolved/dispersed in water containing 0.25% non-ionic surfactant, and sprayed postemergence to these turf grasses and weeds. Treated plants were grown under greenhouse conditions for three weeks before visual evaluations of plant responses were recorded.

Purple nutsedge = experiment: as above; type: in vivo, Cyperus rotundus L.; settings: Purple nutsedge, postemergence, greenhouse, three weeks, 0-100 scale
Text: as §1, §2

Large crabgrass = experiment: as above; type: in vivo, Digitaria sanguinales (L.) Scop.; settings: Large crabgrass, postemergence, greenhouse, three weeks, 0-100 scale
Text: as §1, §2

Annual bluegrass = experiment: as above; type: in vivo, Poa annua L.; settings: Annual bluegrass, postemergence, greenhouse, three weeks, 0-100 scale
Text: as §1, §2

Dandelion = experiment: as above; type: in vivo, Taraxacum officinale Weber in Wiggers; settings: Dandelion, postemergence, greenhouse, three weeks, 0-100 scale
Text: as §1, §2

Goosegrass = experiment: as above; type: in vivo, Eleusine indica (L.) Gaertn.; settings: Goosegrass, postemergence, greenhouse, three weeks, 0-100 scale
Text: as §1, §2

Chickweed = experiment: as above; type: in vivo, Stellaria media (L.) Vill.; settings: Chickweed, postemergence, greenhouse, three weeks, 0-100 scale
Text: as §1, §2

Venice mallow = experiment: as above; type: in vivo, Hibiscus trionium L.; settings: Venice mallow, postemergence, greenhouse, three weeks, 0-100 scale
Text: as §1, §2

[1] = system: Pioneer 39K40 hybrid maize; experiment: Test A: visual plant response rating, postemergence herbicide treatments alone and with Compound 1; type: in vivo, Zea mays L. spp. indentata Sturt.; settings: in vivo
Procedure: as §1
Pioneer 39K40 hybrid maize used in this test (and also Tests B and C) is particularly sensitive to herbicides that inhibit the acetohydroxy acid synthase enzyme. Herbicide mixtures were dissolved/dispersed in a non-phytotoxic liquid carrier and were sprayed postemergence to Pioneer 39K40 hybrid maize (Zea mays L. spp. indentata Sturt.) in the third collar growth stage (extended leaf height was 50-60 cm). Treated plants were grown under greenhouse conditions for two weeks before visual evaluations of plant responses were recorded.

[2] = herbicide 200 g ai/ha + Compound 1 125 g ai/ha
[3] = herbicide 80 g ai/ha + Compound 1 125 g ai/ha

For `Nc1nc(C2CC2)nc(C(=O)[O-])c1Cl.[K+]` [Aminocyclopyrachlor-potassium, aminocyclopyrachlor], the “Observed Response, Herbicide mixture with Compound 1” value (“Observed Response, Herbicide mixture” for short) (Henbit; [2]) was 100, the “Observed Response, Herbicide alone” value (Henbit; herbicide 200 g ai/ha) was 100 and the “Observed Response, Herbicide mixture” value (Bermudagrass; [2]) was 0. For the same compound, the “Observed Response, Herbicide alone” value (Bermudagrass; herbicide 200 g ai/ha) was 20, the “Observed Response, Herbicide mixture” value (Purple nutsedge; [2]) was 40 and the “Observed Response, Herbicide alone” value (Purple nutsedge; herbicide 200 g ai/ha) was 40. For the same compound, the “Observed Response, Herbicide mixture” value (Large crabgrass; [2]) was 70, the “Observed Response, Herbicide alone” value (Large crabgrass; herbicide 200 g ai/ha) was 80 and the “Observed Response, Herbicide mixture” value (Annual bluegrass; [2]) was 0. For the same compound, the “Observed Response, Herbicide alone” value (Annual bluegrass; herbicide 200 g ai/ha) was 20, the “Observed Response, Herbicide mixture” value (Dandelion; [2]) was 100 and the “Observed Response, Herbicide alone” value (Dandelion; herbicide 200 g ai/ha) was 100. For the same compound, the “Observed Response, Herbicide mixture” value (Goosegrass; [2]) was 0, the “Observed Response, Herbicide alone” value (Goosegrass; herbicide 200 g ai/ha) was 50 and the “Observed Response, Herbicide mixture” value (Chickweed; [2]) was 100. For the same compound, the “Observed Response, Herbicide alone” value (Chickweed; herbicide 200 g ai/ha) was 100, the “Observed Response, Herbicide mixture” value (Venice mallow; [2]) was 98 and the “Observed Response, Herbicide alone” value (Venice mallow; herbicide 200 g ai/ha) was 100.

`COC(=O)c1ccccc1S(=O)(=O)NC(=O)Nc1nc(C)nc(OC)n1` [Metsulfuron-methyl, metsulfuron-methyl] was tested, and the “Observed Response, Herbicide alone” value [1] was 99, the “Observed Response, Herbicide mixture” value (Henbit; [3]) was 100 and the “Observed Response, Herbicide alone” value (Henbit; herbicide 80 g ai/ha) was 100. The “Observed Response, Herbicide mixture” value (Purple nutsedge; [3]) was 20, the “Observed Response, Herbicide alone” value (Purple nutsedge; herbicide 80 g ai/ha) was 60 and the “Observed Response, Herbicide mixture” value (Large crabgrass; [3]) was 0. For the same compound, the “Observed Response, Herbicide alone” value (Large crabgrass; herbicide 80 g ai/ha) was 60, the “Observed Response, Herbicide mixture” value (Annual bluegrass; [3]) was 50 and the “Observed Response, Herbicide alone” value (Annual bluegrass; herbicide 80 g ai/ha) was 80. For the same compound, the “Observed Response, Herbicide mixture” value (Dandelion; [3]) was 100, the “Observed Response, Herbicide alone” value (Dandelion; herbicide 80 g ai/ha) was 100 and the “Observed Response, Herbicide mixture” value (Goosegrass; [3]) was 0. The “Observed Response, Herbicide alone” value (Goosegrass; herbicide 80 g ai/ha) was 50, the “Observed Response, Herbicide mixture” value (Chickweed; [3]) was 100 and the “Observed Response, Herbicide alone” value (Chickweed; herbicide 80 g ai/ha) was 100. For the same compound, the “Observed Response, Herbicide mixture” value (Venice mallow; [3]) was 100 and the “Observed Response, Herbicide alone” value (Venice mallow; herbicide 80 g ai/ha) was 100.
